{"source": "patent US20240050454A1", "about": "“Compositions and Methods For Treating Neurological Conditions” (WeSana Health Inc., priority 2020, published 2024)", "key": {"mice (BALB/c) [1]": {"system": "mice (BALB/c)", "experiment": "Tail suspension test (TST), psilocybin loading dose then psilocybin+CBD+6 MB maintenance"}, "mice (BALB/c) [2]": {"system": "mice (BALB/c)", "experiment": "Elevated plus maze (EPM), anxiety-like behavior"}, "[3]": {"conditions": "psilocybin: loading dose 5 mg/kg alone, combination: given after the psilocybin loading dose"}}, "note": "“Also recorded” adds a separate entry of the source."}
{"substance": "[3-(2-dimethylaminoethyl)-1H-indol-4-yl] dihydrogen phosphate [psilocybin]", "values": [{"measurement": "immobile posture time in TST", "setting": "mice (BALB/c) [1]; Day 15, psilocybin loading dose 5 mg/kg on Day 1, FIG. 4A", "result": "decreased"}, {"measurement": "depression / depressive symptoms in mouse models", "setting": "mice (BALB/c) [1]; [3]", "result": "decreased"}, {"measurement": "time spent immobile in TST", "setting": "mice (BALB/c) [1]; three weeks after 5 mg/kg loading dose of psilocybin (Day 22), loading dose only", "result": "significant decrease"}, {"measurement": "percentage of time spent in open space (open arms of the EPM)", "setting": "mice (BALB/c) [2]; Day 14, two weeks after psilocybin loading dose 5 mg/kg, vs vehicle control, FIG. 2, 5 mg/kg", "result": "significantly increased; also recorded: more time"}, {"measurement": "anxiety in mouse models", "setting": "mice (BALB/c) [2]; [3]", "result": "decreased"}]}
